The results in this text go back to US11040028B2, “Penicinotam derivative, preparation method and use thereof” (OCEAN UNIVERSITY OF CHINA, priority 2017, dated 2021).

Some results are limits rather than exact numbers.

Common to all, as to assay type: cell-based
The test system of one assay is BHK-21 cells. As to the kind of experiment: Anti-fibrosis activity test: inhibition of BHK-21 cell proliferation (CCK-8). The settings on record: Mesocricetus auratus, BHK-21, 48 h, CCK-8, 48 hours after administration. The method in brief:
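Read-out: CCK-8 absorbance at 450 nm after 2 h, giving proliferation inhibition (1−Ai/Ao)×100% versus blank control, from which IC50 was derived. Cells had been treated with compounds for 48 h after 24 h adherence at 37° C. Pirfenidone served as positive control.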

For assay [1], the system named is human lung fibroblasts HFL1. In words: Anti-fibrosis activity test: inhibition of proliferation of human lung fibroblasts HFL1 (CCK-8). Particulars: Homo sapiens, HFL1, 48 h, human lung fibroblasts HFL1, CCK-8, 48 hours. In a few lines: (§1)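 48 h compound treatment of fibroblast-type cells seeded at 2×10^4 cells/mL, 37° C, 5% CO2; viability by CCK-8 (2 h, A450). Inhibition rate calculated against blank control, IC50 by curve fitting; pirfenidone served as reference.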

Assay [2] deals with human hepatic stellate cells LX-2. As to the kind of experiment: Anti-fibrosis activity test: inhibition of proliferation of human hepatic stellate cells LX-2 (CCK-8). Particulars: Homo sapiens, 48 h, human hepatic stellate cells LX-2, CCK-8, 48 hours. The method in brief:
as §1

The test system of assay [3] is human fibrosarcoma cells HT-1080. As to the kind of experiment: Anti-fibrosis activity test: inhibition of proliferation of human fibrosarcoma cells HT-1080 (CCK-8). Particulars: Homo sapiens, HT-1080, 48 h, human fibrosarcoma cells HT-1080, CCK-8, 48 hours. The method in brief: as §1
Assay [4] relates to human dermal fibroblasts CCC-ESF-1. As to the kind of experiment: Anti-fibrosis activity test: inhibition of proliferation of human dermal fibroblasts CCC-ESF-1 (CCK-8). Particulars: Fibroblast; human dermal fibroblasts CCC-ESF-1, CCK-8, 48 hours. The method in brief:
as §1

Assay [5] concerns human embryonic lung fibroblast IMR-90. In words: Anti-fibrosis activity test: inhibition of proliferation of human embryonic lung fibroblast IMR-90 (CCK-8). The settings on record: human embryonic lung fibroblast IMR-90, CCK-8, 48 hours. The method in brief:
as §1

The subject of assay [6] is cardiac fibroblast RAT-iCell-C002. In words: Anti-fibrosis activity test: inhibition of proliferation of cardiac fibroblast RAT-iCell-C002 (CCK-8). The settings on record: Cardiac fibroblast, 48 h, cardiac fibroblast RAT-iCell-C002, CCK-8, 48 hours. The method in brief: as §1
A further assay concerns NF-κB. As to the kind of experiment: Immunological activity test: inhibition of NF-κB activity. The settings on record: initial concentration of 30 μM; a/b isomers given as first/second symbol; read-out: IC50 (μM), inhibitory activity against NF-κB. The method in brief: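 Single-point testing at 30 μM preceded IC50 determination.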
Assay [7] relates to mouse macrophages (RAW264.7). As to the kind of experiment: Lipopolysaccharide-induced NO secretion in macrophages (Griess). The settings on record: Mus musculus, RAW264.7, 24 h, RAW264.7, LPS 1 μg/ml, a/b isomers given as first/second symbol, read-out: IC50 (μM), inhibition of lipopolysaccharide-induced NO secretion in macrophages. In a few lines: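 RAW264.7 macrophages in DMEM with 10% FBS received test samples at several concentrations and were stimulated with 1 μg/ml LPS for 24 h. NO in the supernatant was measured with the Griess reagent at 548 nm, […].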

A word on the IC50: it is the point on the concentration scale where inhibition reaches its midpoint.

Regarding `O=C(O)c1ccccc1-c1ccc(Cn2c3c(c(=O)c4ccccc42)C(=O)n2cccc2-3)cc1` [Compound 81a, 4′-((9,10-Dioxo-9H-pyrrolizino[1,2-b]quinolin-4(10H)-yl)methyl)-[1,1′-biphenyl]-2-carboxylic acid], the IC50 in the assay with BHK-21 cells was < 0.05 mM; in assay [1], 0.05 to 5 mM; in [2], < 0.05 mM; in [3], 0.05 to 5 mM; in assay [4], 0.05 to 5 mM; in [5] it was < 0.05 mM. In addition, the IC50 in assay [6] is 0.05 to 5 mM; in the assay on NF-κB, 1 to 10 µM; in assay [7] it was 1 to 10 µM.

Regarding `O=C(O)c1ccccc1-c1ccc(COc2c3c(nc4ccccc24)-c2cccn2C3=O)cc1` [Compound 81b, 4′-(((10-oxo-10H-pyrrolizino[1,2-b]quinolin-9-yl)oxy)methyl)-[1,1′-biphenyl]-2-carboxylic acid], the IC50 in the assay with BHK-21 cells was 0.05 to 5 mM; in assay [1] it was 0.05 to 5 mM; in assay [2] it was < 0.05 mM; in assay [3], 0.05 to 5 mM; in assay [4] it was 0.05 to 5 mM; in [5], 0.05 to 5 mM. In addition, the IC50 in assay [6] was in the range of 0.05 to 5 mM; in the assay with NF-κB, 1 to 10 µM; in [7], 1 to 10 µM.

`O=C(Cn1c2c(c(=O)c3ccccc31)C(=O)n1cccc1-2)c1ccc(Cl)cc1` [Compound 90a, 4-(2-(4-Chlorophenyl)-2-oxoethyl)-9H-pyrrolizino[1,2-b]quinoline-9,10(4H)-dione]: the IC50 is 0.05 to 5 mM in the assay with BHK-21 cells; 0.05 to 5 mM in assay [1]; < 0.05 mM in [2]; 0.05 to 5 mM in assay [3]; 0.05 to 5 mM in assay [4]; 0.05 to 5 mM in [5]. Further, the IC50 in assay [6] lay within 0.05 to 5 mM; in the assay on NF-κB, 1 to 10 µM; in [7] it was 0.1 to 1 µM.

For the compound `O=C(COc1c2c(nc3ccccc13)-c1cccn1C2=O)c1ccc(Cl)cc1` [Compound 90b, 9-(2-(4-chlorophenyl)-2-oxoethoxy)-10H-pyrrolizino[1,2-b]quinolin-10-one], the IC50 in the assay with BHK-21 cells was 0.05 to 5 mM; in [1], 0.05 to 5 mM; in [2], 0.05 to 5 mM; in [3], 5 to 20 mM; in assay [4] it was 0.05 to 5 mM; in [5] it was 0.05 to 5 mM. For the same compound, the IC50 in [6] fell in the range of 0.05 to 5 mM; with NF-κB, 1 to 10 µM; in assay [7] it was 0.1 to 1 µM.

On to `O=C(COc1c2c(nc3ccccc13)-c1cccn1C2=O)c1ccc(C(F)(F)F)cc1` [Compound 91b, 9-(2-oxo-2-(4-(trifluoromethyl)phenyl)ethoxy)-10H-pyrrolizino[1,2-b]quinolin-10-one], for which the IC50 with BHK-21 cells is 0.05 to 5 mM; in [1], < 0.05 mM; in assay [2], 5 to 20 mM; in assay [3] it was 0.05 to 5 mM; in assay [4], 0.05 to 5 mM; in assay [5], 0.05 to 5 mM. Further, the concentration for half-maximal inhibition (IC50) in [6] is 0.05 to 5 mM; in the assay on NF-κB it was 1 to 10 µM; in assay [7] it was 0.1 to 1 µM.

For the compound `O=C1c2c(n(C(=O)c3ccco3)c3ccccc3c2=O)-c2cccn21` [Compound 95a, 4-(Furan-2-carbonyl)-9H-pyrrolizino[1,2-b]quinoline-9,10(4H)-dione], the IC50 with BHK-21 cells was 0.05 to 5 mM; in [1], 0.05 to 5 mM; in [2], < 0.05 mM; in assay [3], < 0.05 mM; in [4] it was 0.05 to 5 mM; in assay [5] it was < 0.05 mM. Also, the results for the 50% inhibitory concentration (IC50) (in [6]; with NF-κB; in assay [7]) were 0.05 to 5 mM, 1 to 10 µM and 1 to 10 µM, respectively.

Turning to `O=C(Oc1c2c(nc3ccccc13)-c1cccn1C2=O)c1ccco1` [Compound 95b, 10-oxo-10H-pyrrolizino[1,2-b]quinolin-9-ylfuran-2-carboxylate], the IC50 was 0.05 to 5 mM in the assay on BHK-21 cells; 0.05 to 5 mM in assay [1]; < 0.05 mM in assay [2]; 0.05 to 5 mM in assay [3]; 0.05 to 5 mM in assay [4]; 0.05 to 5 mM in [5]. The IC50 in assay [6] was 0.05 to 5 mM; in the assay on NF-κB, 1 to 10 µM; in assay [7], 1 to 10 µM.

On to `O=C1c2c(n(CCN3CCNCC3)c3ccccc3c2=O)-c2cccn21` [Compound 98a, 4-(2-(Piperazin-1-yl)ethyl)-9H-pyrrolizino[1,2-b]quinoline-9,10(4H)-dione], for which the IC50 in the assay with BHK-21 cells was < 0.05 mM; in [1], 0.05 to 5 mM; in assay [2], < 0.05 mM; in assay [3], 0.05 to 5 mM; in assay [4], < 0.05 mM; in assay [5], < 0.05 mM. The figures for the half-inhibitory concentration (IC50) (in assay [6]; in the assay with NF-κB; in assay [7]) were 0.05 to 5 mM, 1 to 10 µM and 1 to 10 µM, respectively.

As for `O=C1c2c(nc3ccccc3c2OCCN2CCNCC2)-c2cccn21` [Compound 98b, 9-(2-(piperazin-1-yl)ethoxy)-10H-pyrrolizino[1,2-b]quinolin-10-one], the IC50 (in the assay on BHK-21 cells; in assay [1]; in [2]; in [3]; in [4]; in assay [5]) was 0.05 to 5 mM in each case. Moreover, the IC50 in assay [6] is 0.05 to 5 mM; in the assay with NF-κB, 1 to 10 µM; in [7], 1 to 10 µM.

`O=C(O)Cn1c2c(c(=O)c3ccccc31)C(=O)n1cccc1-2` [Compound 100a, 2-(9,10-Dioxo-9H-pyrrolizino[1,2-b]quinolin-4(10H)-yl)acetic acid]: the IC50 is 0.05 to 5 mM in the assay on BHK-21 cells; < 0.05 mM in [1]; 0.05 to 5 mM in [2]; 0.05 to 5 mM in assay [3]; 0.05 to 5 mM in assay [4]; 0.05 to 5 mM in assay [5]. In addition, the results for the IC50 (in assay [6]; with NF-κB; in assay [7]) were 0.05 to 5 mM, 1 to 10 µM and 0.1 to 1 µM, respectively.

Turning to `O=C(O)COc1c2c(nc3ccccc13)-c1cccn1C2=O` [Compound 100b, 2-((10-oxo-10H-pyrrolizino[1,2-b]quinolin-9-yl)oxy)acetic acid], the IC50 (with BHK-21 cells; in assay [1]; in [2]; in [3]; in [4]; in assay [5]) was 0.05 to 5 mM throughout. The IC50 is 0.05 to 5 mM in assay [6], 1 to 10 µM in the assay on NF-κB and 1 to 10 µM in [7].

As to `O=C1c2c(n(Cc3ccccc3)c3ccccc3c2=O)-c2cccn21` [Compound 103a, 4-Benzyl-9H-pyrrolizino[1,2-b]quinoline-9,10(4H)-dione], the IC50 in the assay with BHK-21 cells was 0.05 to 5 mM; in [1], 0.05 to 5 mM; in assay [2], 0.05 to 5 mM; in assay [3] it was 0.05 to 5 mM; in assay [4] it was 0.05 to 5 mM; in assay [5] it was < 0.05 mM. Further, the 50% inhibitory concentration (IC50) in [6] is 0.05 to 5 mM; with NF-κB, 1 to 10 µM; in assay [7] it was 0.1 to 1 µM.

Take `O=C1c2c(nc3ccccc3c2OCc2ccccc2)-c2cccn21` [Compound 103b, 9-(benzyloxy)-10H-pyrrolizino[1,2-b]quinolin-10-one]: the IC50 in the assay with BHK-21 cells was 0.05 to 5 mM; in assay [1], 0.05 to 5 mM; in assay [2], 0.05 to 5 mM; in assay [3], 0.05 to 5 mM; in assay [4] it was 0.05 to 5 mM; in assay [5] it was < 0.05 mM. For the same compound, the IC50 in [6] is 0.05 to 5 mM; in the assay on NF-κB, 1 to 10 µM; in assay [7] it was 1 to 10 µM.

`CC(C)=CCn1c2c(c(=O)c3cc(F)ccc31)C(=O)n1cccc1-2` [Compound 112a, 7-Fluoro-4-(3-methylbut-2-en-1-yl)-9H-pyrrolizino[1,2-b]quinoline-9,10(4H)-dione]: the IC50 lay in the range of 5 to 20 mM with BHK-21 cells; 0.05 to 5 mM in assay [1]; 0.05 to 5 mM in assay [2]; 0.05 to 5 mM in assay [3]; 0.05 to 5 mM in assay [4]; 0.05 to 5 mM in assay [5]. For the same compound, the IC50 in assay [6] lay within 0.05 to 5 mM; in the assay with NF-κB, 10 to 50 µM; in assay [7], 1 to 10 µM.

For `CC(C)=CCOc1c2c(nc3ccc(F)cc13)-c1cccn1C2=O` [Compound 112b, 7-fluoro-9-((3-methylbut-2-en-1-yl)oxy)-10H-pyrrolizino[1,2-b]quinolin-10-one], the IC50 (with BHK-21 cells; in assay [1]; in assay [2]; in [3]; in assay [4]; in assay [5]) was 0.05 to 5 mM throughout. Moreover, the results for the IC50 (in assay [6]; in the assay with NF-κB; in assay [7]) were 0.05 to 5 mM, 1 to 10 µM and 1 to 10 µM, respectively.
